{"source": "patent US7030087B2", "about": "“Synthetic approach to designed chemical structures” (priority 1996, dated 2006)", "key": {"P. aeruginosa": {"test_system": "P. aeruginosa", "assay": "Bactericidal activity assay", "format": "cell-based, Pseudomonas aeruginosa type 1", "how_it_was_run": "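Log-phase P. aeruginosa type 1 (smooth clinical isolate) was grown in brain heart infusion broth, washed, and diluted 1:10 from about 3×10^8 CFU/ml into 0.08M citrate phosphate buffer at pH 5.6 or pH 7.0. Peptides were tested from about […] to 4.1×10^−9M, with LD50 derived from dose response by linear regression.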"}, "[1]": {"test_system": "endotoxin from E. coli 055:B5", "assay": "Limulus amoebocyte lysate assay (E-TOXATE), endotoxin neutralization", "format": "biochemical", "how_it_was_run": "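Peptide preincubated with LPS 5 min at room temperature in 1:2 pyrogen-free saline (pH 6.4), then amoebocyte lysate added (E-TOXATE kit). Neutralization of endotoxin activity scored by Limulus lysate reaction; BG38L served as positive control.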"}}, "data": [{"substance": "platelet factor 4 [PF4]", "values": [{"measurement": "Bactericidal Activity, % killing", "setting": "P. aeruginosa; 1.2 × 10^−7 M Peptide, 5 × 105 P. aeruginosa", "result": 0, "unit": "%"}, {"measurement": "Bactericidal Activity, % killing at the effective dose", "setting": "P. aeruginosa; at the Ed for the same peptide", "result": 19, "unit": "%"}, {"measurement": "Bactericidal Activity, Ed, Effective M dose", "setting": "P. aeruginosa; dose at which the % in brackets was found", "result": 1.5, "unit": "µM"}, {"measurement": "endotoxin neutralizing activity (in words)", "setting": "[1]", "result": "no endotoxin neutralizing activity"}, {"measurement": "Endotoxin Neutralizing Activity, % neutralization", "setting": "[1]; 5.0 × 10^−5 M peptide, 0.02 U (0.2 pg) endotoxin from E. coli 055:B5, Table 3", "result": 0, "unit": "%"}, {"measurement": "Endotoxin Neutralization, % neutralization", "setting": "[1]; 5.0 × 10^−6 M Peptide, 0.02 U (0.2 pg) endotoxin from E. coli 055:B5, Table 4", "result": 0, "unit": "%"}, {"measurement": "Endotoxin Neutralization, % at the effective dose", "setting": "[1]; Table 3, at the ED printed in the same cell", "result": 23, "unit": "%"}, {"measurement": "Endotoxin neutralization, ED, Effective M dose", "setting": "[1]; Table 3, dose at which the % in brackets was found", "result": 50, "unit": "µM"}, {"measurement": "Endotoxin Neutralization, % at the effective dose", "setting": "[1]; Table 4, at the Ed", "result": 0, "unit": "%"}, {"measurement": "Endotoxin Neutralization, Ed, Effective M dose", "setting": "[1]; Table 4, dose at which the % in brackets was found", "result": 50, "unit": "µM"}]}]}
